Reference: patent US8481679B2, “Immobilizing an entity in a desired orientation on a support material” (Arizona Board of Regents Acting on behalf of Arizona State …, priority 2007, dated 2013)

Legend:
[1] = test system: carbonic anhydrase; assay: Corning Epic binding of carbonic anhydrase to wells pre-coated with attachment peptides; conditions: carbonic anhydrase at 1 μM; 30 and 180 minute incubation
Description: The selected candidate peptides were applied to the wells of a Corning Epic System 384-well microplate by linking the C-terminal cysteines of the peptides to surface amines of the Epic microplate wells via the maleimide and amine moieties, respectively, of a BMPH linker (Pierce). The immobilization of the peptides to the Epic microplate wells without carbonic anhydrase was first evaluated to identify any peptides binding poorly to the well surface, and to provide a basis for computing the maximum wavelength shift theoretically obtainable with optimal binding of the carbonic anhydrase to the peptides at a concentration sufficient to saturate. […] This could reflect inadequate binding to the surface due to poor solubility of the poorly binding peptides.
Carbonic anhydrase was applied in Epic microplate wells in which the selected peptides had been pre-applied to the well surface, in groups of four replicate wells and in carbonic anhydrase concentrations ranging from 31 nM to 1 μM. Observed wavelength shifts after 30 minute incubation of the indicated concentrations of carbonic anhydrase with peptides CA4, CA8, CA9, CA10, CA11, and CA12 are shown in FIG. 7(a).

[2] = test system: carbonic anhydrase; assay: Corning Epic binding of dansylamide to carbonic anhydrase immobilized by attachment peptides; conditions: 1 μM dansylamide; six carbonic anhydrase concentrations, four replicates each; nearly all replicates
Experimental: Dansylamide, a known inhibitor of carbonic anhydrase, was applied to a range of concentrations (31 nM to 1 μM) of carbonic anhydrase immobilized in Epic wells by peptides CA4, CA8, CA9, CA10, CA11, and CA12. […] Wavelength shifts on the order of approximately 10 to 20 pm were observed upon application of the dansylamide to carbonic anhydrase immobilized at 1 μM concentration on peptides CA4, CA8, and CA11, confirming that the carbonic anhydrase was immobilized in an orientation that preserved the availability of the binding site (active site) and ability of the enzyme to consistently bind the inhibitor dansylamide, and confirming that the attachment peptides were able to immobilize carbonic anhydrase in the wells of an Epic plate in a manner such that binding of dansylamide to the carbonic anhydrase was readily detectable by the Epic technology.
For nearly all replicates, a shift on the order of 20 pm was observed upon application of the dansylamide.

[3] = target: beta-galactosidase (Escherichia coli, UniProt P00722); conditions: 50 nM beta-galactosidase, 5 μM FDG, 0.5 hour preincubation; selected peptide at 2, 10, 50, 100 μM
Experimental: The enzyme activity of the entity beta-galactosidase when bound to the selected peptide having the sequence […] (SEQ ID NO. 2), was evaluated in solution phase by preincubating varying concentrations of the peptide with beta-galactosidase for 0.5 hour, then adding substrate FDG in solution and measuring 520 nm fluorescence upon 488 nm excitation at a series of time points.

[4] = test system: T1, comparison attachment peptide (sequence ESVPTDLPMDTMEGKNWGSC (SEQ ID NO. 14))
T1 sequence: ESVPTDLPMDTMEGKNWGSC

[5] = test system: T2, selected peptide having the sequence FRNFPVPVIFRYLNPWPGSC (SEQ ID NO. 2)
T2 sequence: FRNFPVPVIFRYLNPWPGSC

Sequence of beta-galactosidase (P00722 2-1024): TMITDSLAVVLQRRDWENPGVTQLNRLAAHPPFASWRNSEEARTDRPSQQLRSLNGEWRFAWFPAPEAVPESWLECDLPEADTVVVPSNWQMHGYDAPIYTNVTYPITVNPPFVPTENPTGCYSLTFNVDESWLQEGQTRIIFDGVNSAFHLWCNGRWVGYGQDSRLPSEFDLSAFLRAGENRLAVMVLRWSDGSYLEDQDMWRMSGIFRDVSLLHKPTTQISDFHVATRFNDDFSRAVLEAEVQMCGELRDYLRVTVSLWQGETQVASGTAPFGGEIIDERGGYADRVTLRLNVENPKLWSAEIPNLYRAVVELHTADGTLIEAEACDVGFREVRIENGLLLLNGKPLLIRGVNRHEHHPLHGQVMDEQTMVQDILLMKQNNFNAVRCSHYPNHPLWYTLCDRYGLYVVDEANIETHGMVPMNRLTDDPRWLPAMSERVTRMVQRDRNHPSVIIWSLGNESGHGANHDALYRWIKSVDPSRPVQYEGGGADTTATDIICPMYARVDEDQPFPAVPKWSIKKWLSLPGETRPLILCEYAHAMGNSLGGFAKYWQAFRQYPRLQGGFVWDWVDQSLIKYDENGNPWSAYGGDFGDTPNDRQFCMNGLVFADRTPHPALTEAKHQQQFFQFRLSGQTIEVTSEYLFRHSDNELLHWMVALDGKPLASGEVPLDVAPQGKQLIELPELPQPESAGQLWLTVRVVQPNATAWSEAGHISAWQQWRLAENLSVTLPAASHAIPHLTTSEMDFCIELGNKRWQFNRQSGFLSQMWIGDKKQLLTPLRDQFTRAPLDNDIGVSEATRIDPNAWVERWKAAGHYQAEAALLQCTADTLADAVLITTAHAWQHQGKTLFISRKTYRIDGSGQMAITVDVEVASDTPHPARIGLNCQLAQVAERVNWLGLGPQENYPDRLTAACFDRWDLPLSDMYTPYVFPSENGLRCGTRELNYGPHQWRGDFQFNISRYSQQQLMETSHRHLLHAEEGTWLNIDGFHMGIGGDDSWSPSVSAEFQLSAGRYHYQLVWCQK

Row | Substance | wavelength shift on binding of carbonic anhydrase to peptide [1] | further results
1 | CA4: 20-residue candidate attachment peptide for carbonic anhydrase, C-terminal glycine-serine-cysteine; sequence only in FIG. 6A (HWHHRWWHHWKHPHHWRGSC; CA4 (Carbonic Anhydrase Peptide 4)) | wavelength shifts which persisted even after 180 minutes incubation | –
2 | CA8: 20-residue candidate attachment peptide for carbonic anhydrase, C-terminal glycine-serine-cysteine; sequence only in FIG. 6A (RHWKWHWWRRHHPHHWFGSC; CA8 (Carbonic Anhydrase Peptide 8)) | wavelength shifts which persisted even after 180 minutes incubation | –
3 | CA9: 20-residue candidate attachment peptide for carbonic anhydrase, C-terminal glycine-serine-cysteine; sequence only in FIG. 6A (RVFKRYKRWLHVSRYYFGSC; CA9 (Carbonic Anhydrase Peptide 9)) | wavelength shifts which persisted even after 180 minutes incubation | –
4 | CA11: 20-residue candidate attachment peptide for carbonic anhydrase, C-terminal glycine-serine-cysteine; sequence only in FIG. 6A (IEDTYLRFRHYGWYNNNGSC; CA11 (Carbonic Anhydrase Peptide 11)) | wavelength shifts which persisted even after 180 minutes incubation | wavelength shift upon application of dansylamide (time course) [2]: ~20 pm
5 | CA12: 20-residue candidate attachment peptide for carbonic anhydrase, C-terminal glycine-serine-cysteine; sequence only in FIG. 6A (SIGIYGHAIARPGGWYFGSC; CA12 (Carbonic Anhydrase Peptide 12)) | wavelength shifts which persisted even after 180 minutes incubation | –
6 | ESVPTDLPMDTMEGKNWGSC [SEQ ID NO. 14] | – | 520 nm fluorescence intensity (beta-galactosidase activity) relative to beta-galactosidase alone [3]: slightly higher than for beta-galactosidase alone
7 | FRNFPVPVIFRYLNPWPGSC [SEQ ID NO. 2] | – | 520 nm fluorescence intensity (beta-galactosidase activity) relative to beta-galactosidase alone [3]: significantly lower than that for beta-galactosidase alone
8 | beta-galactosidase | – | 520 nm fluorescence intensity (FDG hydrolysis by beta-galactosidase, solution phase) [4]: slightly higher than for beta-galactosidase alone; 520 nm fluorescence intensity (FDG hydrolysis by beta-galactosidase, solution phase; peptide at 2, 10, 50 and 100 µM) [5]: at all concentrations was significantly lower than that for beta-galactosidase alone
